Data as given in US12186332B2, “Methods for overcoming WNT/beta-catenin anti-cancer resistance in leukemia stem cells” (STOWERS INSTITUTE FOR MEDICAL RESEARCH, priority 2019, dated 2025).

Columns and labels:
[1] = tested on: pS^552-β-catenin; test: Western analysis of compound-treated TOP and FOP cells; assay type: cell-based
Protocol: TOP and FOP cells were treated with thioguanosine at EC90, EC50 and EC25 derived from FIG. 2A for 48 hours, washed and flash frozen for Western analysis. EC50 data is shown.
TOP and FOP cells were treated with compound 0105375 at EC90, EC50 and EC25 derived from FIG. 2B for 48 hours, washed and flash frozen for Western analysis. EC50 data is shown.
TOP and FOP cells were treated with doxorubicin at EC90, EC50 and EC25 derived from FIG. 2C for 48 hours, washed and flash frozen for Western analysis. EC50 data is shown.

[2] = tested on: CD8^+ T cells; test: FACS of peripheral blood CD8+ T cells in leukemic mice; assay type: in vivo, mouse; conditions: 48 hrs post-treatment
[3] = tested on: PD-L1, TIM-3 and CD24 on LSCs; test: FACS of immune checkpoints on LSCs; assay type: in vivo, mouse; conditions: 3 days post-treatment
Source text: Frequency in BM (top) and frequency of the indicated immune checkpoint within the LSC population (bottom) are shown.

[4] = tested on: patient BM with or without chemoresistant pS^552-β-cat^+ LSCs; test: 2° PDX recipients treated with low-dose DXR ([Low]nanoDXR); assay type: in vivo, human
Protocol: (§1) FIG. 12F is the Kaplan-Meier survival curve for 2° PDX recipients treated with vehicle or [Low]nanoDXR. Bone marrow was harvested from 1° recipients of diagnostic BM, transplanted into a larger set of 2° PDX recipients and treated with [Low] NanoDXR starting at day 14 post-transplant and continuing for up to 10 weeks.
as §1, with “12G” for “12F”, “post-chemotherapy” for “diagnostic”
Human CD45^+ and human LSC engraftment was determined after succumbing to leukemia or at experimental endpoint. Graphs indicate frequency (%)+Std. Dev.
as §1, with “12L” for “12F”, “BM (FIG. 12D),” for “BM,”
as §1, with “12M” for “12F”, “BM (FIG. 12E),” for “BM,”
Human CD45^+ and human LSC engraftment was determined after succumbing to leukemia or at experimental endpoint. Graphs indicate frequency (%)+Std. Dev. (N.S.=not significant).
All patient samples were obtained under research ethics board approval with informed consent. Pediatric patient BM was transplanted into NSG mice. When 1° transplant mice succumbed to leukemia, bone marrow was harvested, frozen for later use, and transplanted into a larger set of 2° NSG recipients. […] Health was monitored independently by technicians blinded to any hypothetical outcome. […]

[5] = tested on: HEK-TOP cell lines; test: Cell Titer Glo cytotoxicity profile (CTG); conditions: concentration range as worded in the sentence
Protocol: Activity of compounds was tested against HEK-TOP cells vs. HEK FOP cells for inhibition of luciferase activity. The cytotoxicity profiles of the compounds were also tested using Cell Titer Glo assay (Promega) on HEK-TOP cell lines.

[6] = particularly low concentrations, 48 hours
[7] = Pt samples containing chemoresistant pS552-β-cat+ LSCs

## COc1cccc2c1C(=O)c1c(O)c3c(c(O)c1C2=O)C[C@@](O)(C(=O)CO)C[C@@H]3O[C@H]1C[C@H](N)[C@H](O)[C@H](C)O1 [DXR, doxorubicin]
[1]
  inhibition of pS552-β-catenin relative to pan β-catenin (HTS candidates): could inhibit pS^552-β-catenin with less effect on pan β-catenin
[1]; [6]
  effect on β-catenin generally: only minimal effect
  pS552-β-catenin level: inhibited
[2]; [Low]DXR
  CD8+ T cells in peripheral blood: significant increase
[2]; clinical-dose DXR
  CD8+ T cells in peripheral blood: significant reduction
[3]; [Low]DXR
  LSC populations expressing PD-L1 and CD24: reduced
  TIM-3+ LSCs: reduced
[3]; clinical-dose DXR
  LSC populations expressing PD-L1 and CD24: this reduction was reversed
  TIM-3+ LSCs: increased substantially
[4]; [7]
  leukemia engraftment and LSC frequency compared to vehicle control: reduced leukemia engraftment and LSC frequency
  survival compared to vehicle control: significantly improved survival
[4]; Pt samples lacking chemoresistant pS552-β-cat+ LSCs
  survival, leukemia engraftment or LSC frequency: no significant difference
[5]
  toxicity (CTG): increased toxicity
